Test results: patent publication US20050245550A1, “Fungicidal mixtures based on the dithianon” (priority 2002, published 2005)

What was measured:
[1] = system: Alternaria solani; assay: Activity against early blight of tomato caused by Alternaria solani; type: in vivo; settings: individual active compound, 5 days after infection
Method: (§1) The active compounds were prepared separately or jointly as a stock solution comprising 0.25% by weight of active compound in acetone or DMSO. 1% by weight of the emulsifier Uniperol® EL (wetting agent having emulsifying and dispersing action based on ethoxylated alkylphenols) was added to this solution, and the mixture was diluted with water to the desired concentration.
(§2) Evaluation was carried out by determining the infected leaf areas in percent. These percentages are converted into efficacies.
(§3) The efficacy (E) is calculated as follows using Abbot's formula: E=(1−α/β)·100 α corresponds to the fungal infection of the treated plants in % and • β corresponds to the fungal infection of the untreated (control) plants in %
(§4) An efficacy of 0 means that the infection level of the treated plants corresponds to that of the untreated control plants; an efficacy of 100 means that the treated plants were not infected.
(§5) The expected efficacies of the active compound mixtures are determined using Colby's formula [S. R. Colby, Weeds 15, 20-22 (1967)] and compared with the observed efficacies.
(§6) Colby's formula: E=x+y−x·y/100 • E expected efficacy, expressed in % of the untreated control, when using the mixture of the active compounds A and B at the concentrations a and b • x efficacy, expressed in % of the untreated control, when using active compound A at a concentration of a
(§7) y efficacy, expressed in % of the untreated control, when using active compound B at a concentration of b
Leaves of potted plants of the cultivar “Groβe Fleischtomate St. Pierre” were sprayed to runoff point with an aqueous suspension having the concentration of active compounds stated below. The next day, the leaves were infected with an aqueous zoospore suspension of Alternaria solani in 2% biomalt solution having a density of 0.17×10^6 spores/ml. The plants were then placed in a water-vapor-saturated chamber at temperatures of between 20 and 22° C. After 5 days, the infection on the leaves of the untreated, but infected control plants had developed to such an extent that the infection could be determined visually in %.

[2] = system: Botrytis cinerea; assay: Activity against gray mold on bell pepper leaves caused by Botrytis cinerea; type: in vivo; settings: individual active compound
Method: as §1
Bell pepper seedlings of the cultivar “Neusiedler Ideal Elite” were, after 4-5 leaves were well developed, sprayed to runoff point with an aqueous suspension having the concentration of active compound stated below. The next day, the treated plants were inoculated with a spore suspension of Botrytis cinerea which contained 1.7×10^6 spores/ml in a 2% strength aqueous biomalt solution. The test plants were then placed in a climatized chamber at 22-24° C. and high atmospheric humidity. After 5 days, the extent of the fungal infection on the leaves could be determined visually in %.
as §2, §3, §4, §5, §6, §7

[3] = concentration in the spray liquor 0.25, 5 days after inoculation
[4] = concentration in the spray liquor 1, 5 days after inoculation
[5] = concentration in the spray liquor 4, 5 days after inoculation

Row | Structure (SMILES) | Efficacy in % of the untreated control ([1]; 0.25 ppm in the spray liquor) [%] | Efficacy in % of the untreated control ([1]; 1 ppm in the spray liquor) [%] | Efficacy in % of the untreated control [2, 3] [%] | Efficacy in % of the untreated control [2, 4] [%] | Efficacy in % of the untreated control [2, 5] [%] | Efficacy in % of the untreated control ([1]; 4 ppm in the spray liquor) [%] | Efficacy in % of the untreated control ([2]; concentration in the spray liquor 16, 5 days after inoculation) [%]
1 | CC(C)(C)C(O)(CCc1ccc(Cl)cc1)Cn1cncn1 (centres unmarked) [II-4, tebuconazole] | 0 | 63 | 0 | 0 | 0 | – | –
2 | Fc1ccc(C2(Cn3cncn3)OC2c2ccccc2Cl)cc1 (centres unmarked) [II-2, epoxiconazole] | 63 | 75 | 9 | 9 | – | – | –
3 | CC1(C)CCC(Cc2ccc(Cl)cc2)C1(O)Cn1cncn1 (centres unmarked) [II-1, metconazole] | 2 | 63 | 0 | 49 | – | – | –
4 | N#Cc1sc2c(=O)c3ccccc3c(=O)c=2sc1C#N [I, dithianon] | 0 | 0 | 0 | 0 | 0 | 0 | 0
